Test results published in PubChem BioAssay (NCI).
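48-hour exposure; five concentrations; linearly interpolated endpoints. GI50 marks 50% less growth. At the TGI there is no net growth.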

How the values were obtained:
Assay in all cases: NCI tumour cell line growth inhibition, 48 h
NCI-H460 lung = test system: NCI-H460 lung
HOP-62 NSCLC = test system: HOP-62 NSCLC
TK-10 renal = test system: TK-10 renal
A498 renal = test system: A498 renal
SF-268 CNS = test system: SF-268 CNS
OVCAR-8 ovarian = test system: OVCAR-8 ovarian
A549 NSCLC = test system: A549 NSCLC
KM12 colon = test system: KM12 colon
SW-620 colon = test system: SW-620 colon
HCT-15 colon = test system: HCT-15 colon
PC-3 prostate = test system: PC-3 prostate
SF-539 CNS = test system: SF-539 CNS
SN12C renal = test system: SN12C renal
OVCAR-4 ovarian = test system: OVCAR-4 ovarian
SK-MEL-2 melanoma = test system: SK-MEL-2 melanoma
IGROV1 ovarian = test system: IGROV1 ovarian
SR leukemia = test system: SR leukemia
NCI-H522 lung = test system: NCI-H522 lung
OVCAR-3 ovarian = test system: OVCAR-3 ovarian
786-0 renal = test system: 786-0 renal
SK-MEL-28 melanoma = test system: SK-MEL-28 melanoma
HT29 colon = test system: HT29 colon
RXF 393 renal = test system: RXF 393 renal
MDA-MB-231 breast = test system: MDA-MB-231 breast
HCT-116 colon = test system: HCT-116 colon
NCI-H23 lung = test system: NCI-H23 lung
HL-60(TB) leukemia = test system: HL-60(TB) leukemia
RPMI-8226 leukemia = test system: RPMI-8226 leukemia
UACC-257 melanoma = test system: UACC-257 melanoma
HOP-92 NSCLC = test system: HOP-92 NSCLC
SNB-19 CNS = test system: SNB-19 CNS
NCI/ADR-RES ovarian = test system: NCI/ADR-RES ovarian
UACC-62 melanoma = test system: UACC-62 melanoma
T-47D breast = test system: T-47D breast
NCI-H226 lung = test system: NCI-H226 lung
MCF7 breast = test system: MCF7 breast
MDA-MB-435 = test system: MDA-MB-435
EKVX NSCLC = test system: EKVX NSCLC
MOLT-4 leukemia = test system: MOLT-4 leukemia
SK-MEL-5 melanoma = test system: SK-MEL-5 melanoma
COLO 205 colon = test system: COLO 205 colon
BT-549 breast = test system: BT-549 breast
CCRF-CEM leukemia = test system: CCRF-CEM leukemia
MALME-3M melanoma = test system: MALME-3M melanoma
M14 melanoma = test system: M14 melanoma
SNB-75 CNS = test system: SNB-75 CNS
ACHN renal = test system: ACHN renal
UO-31 renal = test system: UO-31 renal
HS 578T breast = test system: HS 578T breast
LOX IMVI melanoma = test system: LOX IMVI melanoma
SF-295 CNS = test system: SF-295 CNS
U251 CNS = test system: U251 CNS
HCC-2998 colon = test system: HCC-2998 colon
OVCAR-5 ovarian = test system: OVCAR-5 ovarian
K-562 leukemia = test system: K-562 leukemia
SK-OV-3 ovarian = test system: SK-OV-3 ovarian

Compound: C/C=C\C(=O)O[C@@H]1CC2O[C@@H]3C=C(C)C(=O)C[C@]3(C)[C@]1(C)[C@]21CO1
- GI50 (NCI-H460 lung): 668 nM
- TGI (NCI-H460 lung): 4400 nM
- GI50 (HOP-62 NSCLC): 639 nM
- TGI (HOP-62 NSCLC): 1980 nM
- GI50 (TK-10 renal): 664 nM
- TGI (TK-10 renal): 2500 nM
- GI50 (A498 renal): 676 nM
- TGI (A498 renal): 2380 nM
- GI50 (SF-268 CNS): 743 nM
- TGI (SF-268 CNS): 5450 nM
- GI50 (OVCAR-8 ovarian): 756 nM
- TGI (OVCAR-8 ovarian): 5490 nM
- GI50 (A549 NSCLC): 795 nM
- TGI (A549 NSCLC): 10300 nM
- GI50 (KM12 colon): 567 nM
- TGI (KM12 colon): 5550 nM
- GI50 (SW-620 colon): 634 nM
- TGI (SW-620 colon): 6280 nM
- GI50 (HCT-15 colon): 671 nM
- TGI (HCT-15 colon): 16500 nM
- GI50 (PC-3 prostate): 799 nM
- TGI (PC-3 prostate): 8120 nM
- GI50 (SF-539 CNS): 622 nM
- TGI (SF-539 CNS): 1540 nM
- GI50 (SN12C renal): 643 nM
- TGI (SN12C renal): 3890 nM
- GI50 (OVCAR-4 ovarian): 632 nM
- TGI (OVCAR-4 ovarian): 1930 nM
- GI50 (SK-MEL-2 melanoma): 468 nM
- TGI (SK-MEL-2 melanoma): 1480 nM
- GI50 (IGROV1 ovarian): 842 nM
- TGI (IGROV1 ovarian): 6440 nM
- GI50 (SR leukemia): 670 nM
- TGI (SR leukemia): 3040 nM
- GI50 (NCI-H522 lung): 486 nM
- TGI (NCI-H522 lung): 1620 nM
- GI50 (OVCAR-3 ovarian): 783 nM
- TGI (OVCAR-3 ovarian): 3080 nM
- GI50 (786-0 renal): 615 nM
- TGI (786-0 renal): 3370 nM
- GI50 (SK-MEL-28 melanoma): 471 nM
- TGI (SK-MEL-28 melanoma): 1560 nM
- GI50 (HT29 colon): 534 nM
- TGI (HT29 colon): 2330 nM
- GI50 (RXF 393 renal): 499 nM
- TGI (RXF 393 renal): 1620 nM
- GI50 (MDA-MB-231 breast): 604 nM
- TGI (MDA-MB-231 breast): 2030 nM
- GI50 (HCT-116 colon): 429 nM
- TGI (HCT-116 colon): 2630 nM
- GI50 (NCI-H23 lung): 587 nM
- TGI (NCI-H23 lung): 2140 nM
- GI50 (HL-60(TB) leukemia): 522 nM
- TGI (HL-60(TB) leukemia): 1350 nM
- GI50 (RPMI-8226 leukemia): 522 nM
- TGI (RPMI-8226 leukemia): 1500 nM
- GI50 (UACC-257 melanoma): 599 nM
- TGI (UACC-257 melanoma): 2110 nM
- GI50 (HOP-92 NSCLC): 538 nM
- TGI (HOP-92 NSCLC): 1890 nM
- GI50 (SNB-19 CNS): 565 nM
- TGI (SNB-19 CNS): 3330 nM
- GI50 (NCI/ADR-RES ovarian): 783 nM
- TGI (NCI/ADR-RES ovarian): 8300 nM
- GI50 (UACC-62 melanoma): 653 nM
- TGI (UACC-62 melanoma): 2420 nM
- GI50 (T-47D breast): 529 nM
- TGI (T-47D breast): 1970 nM
- GI50 (NCI-H226 lung): 648 nM
- TGI (NCI-H226 lung): 4360 nM
- GI50 (MCF7 breast): 459 nM
- TGI (MCF7 breast): 14900 nM
- GI50 (MDA-MB-435): 660 nM
- TGI (MDA-MB-435): 2670 nM
- GI50 (EKVX NSCLC): 873 nM
- TGI (EKVX NSCLC): 5700 nM
- GI50 (MOLT-4 leukemia): 581 nM
- TGI (MOLT-4 leukemia): 2240 nM
- GI50 (SK-MEL-5 melanoma): 528 nM
- TGI (SK-MEL-5 melanoma): 1370 nM
- GI50 (COLO 205 colon): 459 nM
- TGI (COLO 205 colon): 1160 nM
- GI50 (BT-549 breast): 699 nM
- TGI (BT-549 breast): 1920 nM
- GI50 (CCRF-CEM leukemia): 422 nM
- TGI (CCRF-CEM leukemia): 25000 nM
- GI50 (MALME-3M melanoma): 612 nM
- TGI (MALME-3M melanoma): 2370 nM
- GI50 (M14 melanoma): 431 nM
- TGI (M14 melanoma): 962 nM
- GI50 (SNB-75 CNS): 470 nM
- TGI (SNB-75 CNS): 1960 nM
- GI50 (ACHN renal): 642 nM
- TGI (ACHN renal): 2770 nM
- GI50 (UO-31 renal): 712 nM
- TGI (UO-31 renal): 4310 nM
- GI50 (HS 578T breast): 723 nM
- TGI (HS 578T breast): 2310 nM
- GI50 (LOX IMVI melanoma): 209 nM
- TGI (LOX IMVI melanoma): 1640 nM
- GI50 (SF-295 CNS): 715 nM
- TGI (SF-295 CNS): 4770 nM
- GI50 (U251 CNS): 648 nM
- TGI (U251 CNS): 5600 nM
- GI50 (HCC-2998 colon): 769 nM
- TGI (HCC-2998 colon): 2720 nM
- GI50 (OVCAR-5 ovarian): 796 nM
- TGI (OVCAR-5 ovarian): 3820 nM
- GI50 (K-562 leukemia): 507 nM
- TGI (K-562 leukemia): 4480 nM
- GI50 (SK-OV-3 ovarian): 896 nM
- TGI (SK-OV-3 ovarian): 6560 nM
